Among the data in patent US12479840B2, “HMG-CoA reductase degradation inducing compound” (Uppthera, priority 2020, dated 2025) are DC50 values, retold here.

In one experiment the target is T1, HMG-CoA reductase (Homo sapiens, UniProt P04035).
T1 construct: endogenous in cells; host or cells: HepG2 (Korea Cell Line Bank)
T1 sequence (P04035 1-888): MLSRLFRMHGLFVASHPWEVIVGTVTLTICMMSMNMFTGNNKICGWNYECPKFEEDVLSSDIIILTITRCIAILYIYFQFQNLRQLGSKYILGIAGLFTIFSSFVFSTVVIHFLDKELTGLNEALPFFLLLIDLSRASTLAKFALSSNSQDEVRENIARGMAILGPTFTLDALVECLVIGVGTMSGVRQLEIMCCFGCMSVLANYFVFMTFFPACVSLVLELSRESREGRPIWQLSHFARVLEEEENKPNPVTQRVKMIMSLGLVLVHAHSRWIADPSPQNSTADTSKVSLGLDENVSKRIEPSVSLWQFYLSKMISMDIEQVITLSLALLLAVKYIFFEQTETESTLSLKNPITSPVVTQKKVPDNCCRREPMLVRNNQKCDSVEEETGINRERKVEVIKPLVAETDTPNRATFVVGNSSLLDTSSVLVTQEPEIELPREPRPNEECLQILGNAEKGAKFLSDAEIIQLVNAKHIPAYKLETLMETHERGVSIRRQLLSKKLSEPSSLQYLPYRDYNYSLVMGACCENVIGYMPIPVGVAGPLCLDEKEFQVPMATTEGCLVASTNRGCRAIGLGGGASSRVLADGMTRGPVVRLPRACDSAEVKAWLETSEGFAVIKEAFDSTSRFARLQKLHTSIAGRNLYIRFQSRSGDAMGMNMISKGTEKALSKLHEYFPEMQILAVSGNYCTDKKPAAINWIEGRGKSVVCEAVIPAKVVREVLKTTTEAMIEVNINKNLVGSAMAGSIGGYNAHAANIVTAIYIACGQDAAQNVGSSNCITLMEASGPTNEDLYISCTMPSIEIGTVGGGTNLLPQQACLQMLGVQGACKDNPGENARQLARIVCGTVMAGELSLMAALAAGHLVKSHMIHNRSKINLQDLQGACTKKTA
In words: HMG-CoA reductase (HMGCR) degradation in HepG2 cells by western blotting. Conditions: treated for 18 hours, ratio of HMG-CoA reductase to GAPDH. In kind it is cell-based. The method in brief:
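Western blot read-out: HMGCR protein probed (1:500, 16 hours at 4° C) alongside GAPDH loading control on 15 μg BCA-normalised RIPA lysates. Lysates came from HepG2 cells (P105–P110) exposed for 18 hours to a 10-point, three-fold series starting at 3 μM.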
(In western blotting, separated proteins are transferred to a membrane and probed.)
Take `Cc1ncsc1-c1ccc(CNC(=O)[C@@H]2C[C@@H](O)CN2C(=O)[C@@H](NC(=O)C2(F)CC2)C(C)(C)C)c(OCCOCCOCCOCCNC(=O)O[C@H]2C[C@@H](C)C=C3C=C[C@H](C)[C@H](CC[C@@H]4C[C@@H](O[Si](C)(C)C(C)(C)C)CC(=O)O4)[C@H]32)c1` [Compound 29, (1S,3R,7S,8S,8aR)-8-(2-((2R,4R)-4-((tert-butyldimethylsilyl)oxy)-6-oxotetrahydro-2H-pyran-2-yl)ethyl)-3,7-dimethyl-1,2,3,7,8,8a-hexahydronaphthalen-1-yl (2-(2-(2-(2-(2-(((2S,4R)-1-((S)-2-(1-fluorocyclopropane-1-carboxamido)-3,3-dimethylbutanoyl)-4-hydroxypyrrolidine-2-carboxamido)methyl)-5-(4-methylthiazol-5-yl)phenoxy)ethoxy)ethoxy)ethoxy)ethyl)carbamate]: the DC50 (as a rule, the concentration giving 50% degradation) was 50 to 500 nM.

The experiment is the same for the next values; noted with them: treated for 18 hours, ratio of HMG-CoA reductase to GAPDH, read-out: DC50.
Regarding `C[C@H]1C=C2C=C[C@H](C)[C@H](CC[C@@H]3C[C@@H](O[Si](C)(C)C(C)(C)C)CC(=O)O3)[C@H]2[C@@H](OC(=O)NCCC2CCN(C(=O)COc3cccc4c3C(=O)N(C3CCC(=O)NC3=O)C4=O)CC2)C1` (stereo partly drawn) [Compound 80, (1S,3R,7S,8S,8aR)-8-(2-((2R,4R)-4-((tert-butyldimethylsilyl)oxy)-6-oxotetrahydro-2H-pyran-2-yl)ethyl)-3,7-dimethyl-1,2,3,7,8,8a-hexahydronaphthalen-1-yl (2-(1-(2-((2-(2,6-dioxopiperidin-3-yl)-1,3-dioxoisoindolin-4-yl)oxy)acetyl)piperidin-4-yl)ethyl)carbamate], the DC50 is less than 50 nM. Regarding `C[C@H]1C=C2C=C[C@H](C)[C@H](CC[C@@H]3C[C@@H](O)CC(=O)O3)[C@H]2[C@@H](OC(=O)NCCOCCOCCOCCNc2ccccc2)C1` [Compound 39, (1S,3R,7S,8S,8aR)-8-(2-((2R,4R)-4-hydroxy-6-oxotetrahydro-2H-pyran-2-yl)ethyl)-3,7-dimethyl-1,2,3,7,8,8a-hexahydronaphthalen-1-yl (2-(2-(2-(2-(phenylamino)ethoxy)ethoxy)ethoxy)ethyl)carbamate], the DC50 is greater than 500 nM. On to `C[C@H]1C=C2C=C[C@H](C)[C@H](CC[C@@H]3C[C@@H](O[Si](C)(C)C(C)(C)C)CC(=O)O3)[C@H]2[C@@H](OC(=O)NCCOCCOCCNC(=O)COc2cccc3c2C(=O)N(C2CCC(=O)NC2=O)C3=O)C1` (stereo partly drawn) [Compound 138, (1S,3R,7S,8S,8aR)-8-(2-((2R,4R)-4-((tert-butyldimethylsilyl)oxy)-6-oxotetrahydro-2H-pyran-2-yl)ethyl)-3,7-dimethyl-1,2,3,7,8,8a-hexahydronaphthalen-1-yl (2-(2-(2-(2-((2-(2,6-dioxopiperidin-3-yl)-1,3-dioxoisoindolin-4-yl)oxy)acetamido)ethoxy)ethoxy)ethyl)carbamate], for which the DC50 is less than 50 nM. In the case of `C[C@H]1C=C2C=C[C@H](C)[C@H](CC[C@@H]3C[C@@H](O)CC(=O)O3)[C@H]2[C@@H](OC(=O)C(C)(C)CCC(=O)NCCOCCOCCOCCNc2cccc3c2C(=O)N(C2CCC(=O)NC2=O)C3=O)C1` (stereo partly drawn) [Compound 3, (1S,3R,7S,8S,8aR)-8-(2-((2R,4R)-4-hydroxy-6-oxotetrahydro-2H-pyran-2-yl)ethyl)-3,7-dimethyl-1,2,3,7,8,8a-hexahydronaphthalen-1-yl 1-((2-(2,6-dioxopiperidin-3-yl)-1,3-dioxoisoindolin-4-yl)amino)-16,16-dimethyl-13-oxo-3,6,9-trioxa-12-azaheptadecan-17-oate], the DC50 was less than 50 nM. Still for that read-out and setting: under `C[C@H]1C=C2C=C[C@H](C)[C@H](CC[C@@H]3C[C@@H](O[Si](C)(C)C(C)(C)C)CC(=O)O3)[C@H]2[C@@H](OC(=O)NCCOCCOCCOCCOCCOCCNc2cccc3c2C(=O)N(C2CCC(=O)NC2=O)C3=O)C1` (stereo partly drawn) [Compound 49, (1S,3R,7S,8S,8aR)-8-(2-((2R,4R)-4-((tert-butyldimethylsilyl)oxy)-6-oxotetrahydro-2H-pyran-2-yl)ethyl)-3,7-dimethyl-1,2,3,7,8,8a-hexahydronaphthalen-1-yl (17-((2-(2,6-dioxopiperidin-3-yl)-1,3-dioxoisoindolin-4-yl)amino)-3,6,9,12,15-pentaoxaheptadecyl)carbamate] stands less than 50 nM. On the same count and under the same terms, as for `CN[C@@H](C)C(=O)N[C@H](C(=O)N1CCC[C@H]1c1nc(C(=O)c2cccc(OCCOCCOCCOCCOCCNC(=O)O[C@H]3C[C@@H](C)C=C4C=C[C@H](C)[C@H](CC[C@@H]5C[C@@H](O[Si](C)(C)C(C)(C)C)CC(=O)O5)[C@H]43)c2)cs1)C1CCCCC1` [Compound 38, (1S,3R,7S,8S,8aR)-8-(2-((2R,4R)-4-((tert-butyldimethylsilyl)oxy)-6-oxotetrahydro-2H-pyran-2-yl)ethyl)-3,7-dimethyl-1,2,3,7,8,8a-hexahydronaphthalen-1-yl (14-(3-(2-((S)-1-((S)-2-cyclohexyl-2-((S)-2-(methylamino)propanamido)acetyl)pyrrolidin-2-yl)thiazole-4-carbonyl)phenoxy)-3,6,9,12-tetraoxatetradecyl)carbamate], the figure is less than 50 nM. Same read-out and setting: under `C[C@H]1C=C2C=C[C@H](C)[C@H](CC[C@@H]3C[C@@H](O)CC(=O)O3)[C@H]2[C@@H](OC(=O)NCCOCCOCCNc2cccc3nnn(C4CCC(=O)NC4=O)c(=O)c23)C1` (stereo partly drawn) [Compound 156, (1S,3R,7S,8S,8aR)-8-(2-((2R,4R)-4-hydroxy-6-oxotetrahydro-2H-pyran-2-yl)ethyl)-3,7-dimethyl-1,2,3,7,8,8a-hexahydronaphthalen-1-yl (2-(2-(2-((3-(2,6-dioxopiperidin-3-yl)-4-oxo-3,4-dihydrobenzo[d][1,2,3]triazin-5-yl)amino)ethoxy)ethoxy)ethyl)carbamate] stands less than 50 nM. On to `C[C@H]1C=C2C=C[C@H](C)[C@H](CC[C@@H]3C[C@@H](O[Si](C)(C)C(C)(C)C)CC(=O)O3)[C@H]2[C@@H](OC(=O)NCCOCCOCCOCCOCCNc2cccc3c2C(=O)N(C2CCC(=O)NC2=O)C3=O)C1` (stereo partly drawn) [Compound 48, (1S,3R,7S,8S,8aR)-8-(2-((2R,4R)-4-((tert-butyldimethylsilyl)oxy)-6-oxotetrahydro-2H-pyran-2-yl)ethyl)-3,7-dimethyl-1,2,3,7,8,8a-hexahydronaphthalen-1-yl (14-((2-(2,6-dioxopiperidin-3-yl)-1,3-dioxoisoindolin-4-yl)amino)-3,6,9,12-tetraoxatetradecyl)carbamate], for which the DC50 is less than 50 nM.

Turning to `Cc1ncsc1-c1ccc(CNC(=O)[C@@H]2C[C@@H](O)CN2C(=O)[C@@H](NC(=O)C2(F)CC2)C(C)(C)C)c(OCCOCCNC(=O)O[C@H]2C[C@@H](C)C=C3C=C[C@H](C)[C@H](CC[C@@H]4C[C@@H](O[Si](C)(C)C(C)(C)C)CC(=O)O4)[C@H]32)c1` [Compound 27, (1S,3R,7S,8S,8aR)-8-(2-((2R,4R)-4-((tert-butyldimethylsilyl)oxy)-6-oxotetrahydro-2H-pyran-2-yl)ethyl)-3,7-dimethyl-1,2,3,7,8,8a-hexahydronaphthalen-1-yl (2-(2-(2-(((2S,4R)-1-((S)-2-(1-fluorocyclopropane-1-carboxamido)-3,3-dimethylbutanoyl)-4-hydroxypyrrolidine-2-carboxamido)methyl)-5-(4-methylthiazol-5-yl)phenoxy)ethoxy)ethyl)carbamate], the DC50 is less than 50 nM.
